Source: patent US20240115569A1, “METHODS FOR BLOCKING HER2 SIGNALING FOR TREATING PULMONARY FIBROSIS” (CEDARS-SINAI MEDICAL CENTER, priority 2021, published 2024)

Columns and labels:
human lung fibroblasts [1] = assay: Fibroblast migration assay (BioCoat control insert); format: cell-based; details: 24 hours, PDGF-BB chemoattractant
Experimental: (§1) Fibroblast migration and invasion assays were performed as previously described (Geng et al., 2019; L1 et al., 2011). In brief, fibroblasts were loaded into the top chamber of a Corning BioCoat Control cell culture insert containing a polycarbonate membrane with 8.0 µm pores (for migration) or a BioCoat Matrigel Invasion Chamber (BD Sciences; for invasion). All other settings were the same for the cell migration assay as for the cell invasion assay.
(§2) PDGF-BB (10 ng/ml, Peprotech) was used as a chemoattractant in the bottom chamber. After 24 hours culture at 37° C. with 5% CO2, invasive cells that had passed through the matrigel layer and clung to the bottom of the insert membrane were determined as invasive fibroblasts. Cells remaining in the upper chamber were defined as non-invasive fibroblasts. For quantification of the migration and invasion indices, the membrane filters containing cells were fixed and stained with the Protocol Hema 3 stain set (Thermo Fisher Scientific) and counted in 5 randomly chosen fields per filter from triplicate filters per sample at ×40 magnification. […] The cell migration or the cell invasion index was calculated as the number of cells attached to the bottom of control or Matrigel-coated membranes after 24 hours, normalized to respective control lung fibroblasts.

human lung fibroblasts [2] = assay: Fibroblast invasion assay (BioCoat Matrigel Invasion Chamber); format: cell-based; details: 24 hours, PDGF-BB chemoattractant
Experimental: as §1, §2

fibroblasts = assay: Calcein AM cell viability assay; format: cell-based, human; details: Lapatinib treated cells for 24 hours
Experimental: Cell growth rate of si-CTL and si-FENDRR fibroblasts were measured by IncuCyte ZOOM Live Cell Analysis System (Essen BioScience). The viability of lapatinib-treated fibroblasts or control fibroblasts was examined by Calcein AM Cell Viability Assay Kit (Trevigen).

[3] = test system: NSG mice injected with SEMA7A high IPF fibroblasts; assay: Humanized SCID mouse model of IPF; format: in vivo; details: assessed on day 63
Experimental: Humanized SCID mouse model of IPF was generated as previously reported (Trujillo et al., 2010). Female NOD-scid-IL2Rγc−/− (NSG) mice (6 to 8 weeks old) were purchased from the Jackson Laboratory. The NSG mice received single-cell preparations of SEMA7A high and negative IPF lung fibroblasts (0.5×10^6 cells/mouse) via tail vein injection. […] For the anti-ERBB2 antibody studies, mice were injected with IgG1 (InVivoPlus human IgG1 isotype control, Bio X Cell) or anti-HER2 (Pertuzumab, kindly provided by Genentech) twice per week, 100 μg/mouse from day 35 to 63. Lung fibrosis was assessed on day 63 after fibroblast transfer. The left lobe was used for histology and right lobes were used for hydroxyproline assay after right ventricle perfusion to clear the blood in lungs.

C57BL/6J mice = assay: Bleomycin-induced lung fibrosis; format: in vivo, mouse; details: 1.25 U/kg bleomycin intratracheal; gavaged every day; 21 days; vs vehicle; trichrome and hydroxyproline
Source text: Control animals received saline alone. The tracheostomy site was sutured, and the animals were allowed to recover. […] Mice were euthanized 21 days after bleomycin treatment, and lung tissues were collected for experiments.

SEMA7A = assay: Western blot of SEMA7A in IPF lung fibroblasts; format: cell-based, human; details: increasing concentration
FOXF1 = assay: Western blot of FOXF1 in IPF lung fibroblasts; format: cell-based, human; details: increasing concentration
SEMA7A, F3, and ITGA6 = assay: Flow cytometry of cell surface markers of invasive fibroblasts; format: cell-based, human; details: IPF lung fibroblasts after Lapatinib treatment
Experimental: Briefly, cells were resuspended in Hank's balanced saline solution supplemented with 2% FBS, 10 mM […] , 0.1 mM EDTA, Antibiotic-Antimycotic. […] 4',6-diamidino-2-phenylindole (DA-PI) was used to discriminate dead cells.

IPF lung fibroblasts = assay: qRT-PCR of genes specific to invasive or non-invasive fibroblasts; format: cell-based, human; details: IPF lung fibroblasts after Lapatinib treatment
Experimental: Small interfering RNA (siRNA) knockdown assays were performed using Lipofectamin RNAiMAX Transfection Reagent following the manufacturer's protocol (Thermo Fisher Scientific). Commercial si-RNA used were listed: si-FOXF1 (Santa Cruz Biotechnology, sc-60655), si-CREBRF (Santa Cruz Biotechnology, sc-91839), si-TSC22D1 (Thermo Fisher Scientific, 16708), si-MXI1 (Santa Cruz Biotechnology, sc-35835), si-KLF9 (Santa Cruz Biotechnology, sc-37716), si-NFE2L2 (Santa Cruz Biotechnology, sc-37030), si-HMGA2 (Santa Cruz Biotechnology, sc-37994) si-DPF3 (Santa Cruz Biotechnology, sc-92150) and si-LIN00152 (Dharmacon, SMARTpool: Lincode CYTOR siRNA). Si-FENDRR were synthesized by Integrated DNA Technologies (IDT) (Table 1). RNA was isolated using RNeasy Mini kit (QIAGEN) following the manufacturer's protocol. […] Reverse Transcriptase (Progema) was used for cDNA synthesis. Gene expression was measured relative to the endogenous reference gene GAPDH using the comparative ACT method. The primer sequences used were listed (Table 1).

IPF = IPF patients; cited from earlier work
[4] = different doses of Lapatinib or DMSO

In the case of `CS(=O)(=O)CCNCc1ccc(-c2ccc3ncnc(Nc4ccc(OCc5cccc(F)c5)c(Cl)c4)c3c2)o1` [Lapatinib], the fibroblast migration (human lung fibroblasts [1]; [4]) is reported as “inhibited fibroblast migration and invasion in a dose dependent manner”, the fibroblast invasion (human lung fibroblasts [2]; [4]) is reported as “inhibited fibroblast migration and invasion in a dose dependent manner” and the fibroblast viability (fibroblasts) is reported as “no effect on fibroblast viability”. For the same compound, the lung fibrosis ([3]; 50 mg/kg every other day from day 35 to day 63, vs vehicle, trichrome and hydroxyproline) was “significantly decreased lung fibrosis”, the bleomycin-induced lung fibrosis (C57BL/6J mice) was “blunted bleomycin-induced lung fibrosis” and the “total protein levels of SEMA7A” value (SEMA7A) was “decreased”. The “total protein levels of FOXF1” value (FOXF1) was “increased”, the “cell surface expression of SEMA7A, F3, and ITGA6” value (SEMA7A, F3, and ITGA6) was “decreased protein levels” and the “RNA levels of other representative genes specific to invasive or non-invasive fibroblasts” value (IPF lung fibroblasts) was “reversed to a non-invasive state”.

In the case of `COC(=O)c1ccc2c(c1)NC(=O)/C2=C(\Nc1ccc(N(C)C(=O)CN2CCN(C)CC2)cc1)c1ccccc1` [nintedanib], the “lung function / fibrosis” value (IPF) is listed as “neither of these agents improves lung function or reduces fibrosis” and the “rate of decline in the forced vital capacity” value (IPF) is listed as “reduce the rate of decline in the forced vital capacity”.

For `Cc1ccc(=O)n(-c2ccccc2)c1` [pirfenidone], the “lung function / fibrosis” value (IPF) is listed as “neither of these agents improves lung function or reduces fibrosis” and the “rate of decline in the forced vital capacity” value (IPF) is listed as “reduce the rate of decline in the forced vital capacity”.

In the case of “Pertuzumab: humanized monoclonal antibody that binds to the extracellular domain II of HER2”, the fibroblast migration (human lung fibroblasts [1]; Pertuzumab or IgG1) is reported as “significantly reduced fibroblast migration and invasion”, the fibroblast invasion (human lung fibroblasts [2]; Pertuzumab or IgG1) is reported as “significantly reduced fibroblast migration and invasion” and the lung fibrosis ([3]; 100 μg/mouse twice per week from day 35 to 63, vs IgG1) is reported as “significantly decreased lung fibrosis”.
